Measured values from patent US5756536A, “Microbial transformation of taxol and cephalomannine” (Purdue Research Foundation, priority 1996, dated 1998).
In brackets after ≈: the same amount, converted by molar mass. Like-named read-outs stand apart in the source and are kept apart here.

Legend:
A-549 = assay: In vitro antitumor cytotoxicity, MTT microculture assay, A-549; format: cell-based; settings: Homo sapiens, A549, 144 h
Method: (§1) The in vitro antitumor activity cytotoxicity was measured by a microculture assay using 3-(4,5-dimethylthiazol-2-yl)-2,5-diphenyl-tetrazolium bromide (MTT). This assay has an advantage over in vivo assay in that results are obtained within a week as opposed to several months. The assay was done in 96-well microtiter plates. The MTT assay is based on the transformation into a dark blue formazan product by dehydrogenase in the mitochondria of live tumor cells after exposure to drug for 6 days [M. C. Alley, D. A. Scudiero, A. Monks, M. L. Hursey, M. J. Czerwinski, D. L. Fine, B. J. Abbott, J. G. Mayo, R. H. Shoemaker and M. R. Boyd, Cancer Res., 48, 589, 1988.] Thus, only live cells are stained and can be measured at 570 nm. Antitumor cytotoxicity is reported as GI50, effect drug dose at which cell growth is retarded to 50% of control culture of tumor cells. The active compounds must have GI50 values that are less then 10^-4 M or 10 μg/ml.
(§2) Antitumor Cytotoxicity of Taxanes
(§3) Against Human Tumor Cell Lines

MCF-7 = assay: In vitro antitumor cytotoxicity, MTT microculture assay, MCF-7; format: cell-based; settings: Homo sapiens, MCF7, 144 h
Method: as §1, §2, §3
MCF7: breast adenocarcinoma

HT-29 = assay: In vitro antitumor cytotoxicity, MTT microculture assay, HT-29; format: cell-based; settings: Homo sapiens
Method: as §1, §2, §3
HT29: colon adenocarcinoma

tubulin [1] = assay: FAT tubulin polymerization assay; format: biochemical
tubulin [2] = settings: cited from earlier work
[3] = test system: drug-refractory ovarian cancer; settings: in vivo; cited from earlier work
[4] = cited from earlier work
[5] = A-549 lung carcinoma, drug exposure 6 days, MTT, 570 nm, read-out: GI50
[6] = MCF-7 breast adenocarcinoma, drug exposure 6 days, MTT, 570 nm, read-out: GI50
[7] = 144 h, HT-29 colon adenocarcinoma, drug exposure 6 days, MTT, 570 nm, read-out: GI50

Structure (SMILES)	GI50 (A-549; [5])	GI50 (MCF-7; [6])	GI50 (HT-29; [7])	effect on microtubule / tubulin polymer formation (tubulin [2])	also measured
CC(=O)O[C@H]1C(=O)[C@@]2(C)[C@H]([C@H](OC(=O)c3ccccc3)[C@]3(O)C[C@H](OC(=O)[C@H](O)[C@@H](NC(=O)c4ccccc4)c4ccccc4)C(C)=C1C3(C)C)[C@]1(OC(C)=O)CO[C@@H]1C[C@@H]2O [Taxol]	0.0004 ng/mL (≈ 0.000468 nM)	0.002 ng/mL (≈ 0.00234 nM)	0.0001 ng/mL (≈ 0.000117 nM)	promotes formation of microtubules	IC50 in the FAT tubulin polymerization assay (tubulin [1]): 17 ng/mL (≈ 19.9 nM); activity against drug-refractory ovarian cancer [3]: active agent against drug-refractory ovarian cancer; toxic effects in phase 1 clinical trials [4]: did not show excessive toxic effects
CC[C@]1(O)C[C@@H]2CN(CCc3c([nH]c4ccccc34)[C@@](C(=O)OC)(c3cc4c(cc3OC)N(C)[C@H]3[C@@](O)(C(=O)OC)[C@H](OC(C)=O)[C@]5(CC)C=CCN6CC[C@]43[C@@H]65)C2)C1 [vinblastine]	–	–	–	prevent microtubule formation	–
CC[C@]1(O)C[C@H]2CN(CCc3c([nH]c4ccccc34)[C@@](C(=O)OC)(c3cc4c(cc3OC)N(C=O)[C@H]3[C@@](O)(C(=O)OC)[C@H](OC(C)=O)[C@]5(CC)C=CCN6CC[C@]43[C@@H]65)C2)C1 [vineristine]	–	–	–	prevent microtubule formation	–
CC(=O)O[C@H]1C(=O)[C@@]2(C)[C@H]([C@H](OC(=O)c3ccccc3)[C@]3(O)C[C@H](OC(=O)[C@H](O)[C@@H](NC(=O)c4ccc(O)cc4)c4ccccc4)C(C)=C1C3(C)C)[C@]1(OC(C)=O)CO[C@@H]1C[C@@H]2O [L-760,006]	0.04 ng/mL (≈ 0.046 nM)	0.01 ng/mL (≈ 0.0115 nM)	0.08 ng/mL (≈ 0.092 nM)	–	–
CC(=O)O[C@@]12CO[C@@H]1C[C@H](O)[C@@]1(C)C(=O)[C@H](OC(=O)CO)C3=C(C)[C@@H](OC(=O)[C@H](O)[C@@H](NC(=O)c4ccccc4)c4ccccc4)C[C@@](O)([C@@H](OC(=O)c4ccccc4)[C@H]21)C3(C)C [L-760,007, 10-hydroxyacetyl taxol]	< 0.01 ng/mL	0.04 ng/mL (≈ 0.046 nM)	0.01 ng/mL (≈ 0.0115 nM)	–	–
C/C=C(\C)C(=O)N[C@@H](c1ccccc1)[C@@H](O)C(=O)O[C@H]1C[C@@]2(O)[C@@H](OC(=O)c3ccccc3)[C@@H]3[C@]4(OC(C)=O)CO[C@@H]4C[C@H](O)[C@@]3(C)C(=O)[C@H](OC(C)=O)C(=C1C)C2(C)C [Caphalomannine, cephalomannine]	–	–	–	–	GI50 (A-549): 0.1 ng/mL (≈ 0.12 nM); GI50 (MCF-7): 0.8 ng/mL (≈ 0.962 nM); GI50 (HT-29; HT-29, 144 h): 0.2 ng/mL (≈ 0.24 nM)
CC(=O)O[C@H]1C(=O)[C@@]2(C)[C@H]([C@H](OC(=O)c3ccccc3)[C@]3(O)C[C@H](OC(=O)[C@H](O)[C@@H](NC(=O)/C(C)=C/CO)c4ccccc4)C(C)=C1C3(C)C)[C@]1(OC(C)=O)CO[C@@H]1C[C@@H]2O [L-745,596]	30 ng/mL (≈ 35.4 nM)	50 ng/mL (≈ 59 nM)	20 ng/mL (≈ 23.6 nM)	–	–
